From ChEMBL document CHEMBL3507680, “University of Dundee, Gates Library screen for HepG2 cell viability” come the findings set out here.

The series in a line: Human HepG2 cell viability assay in 384 well format. The series is classed as toxicity, cell-based. Further details: dose 125 nL, time 70.5 hour; concentration not given beside the values. Conditions: HepG2 cells, read-out: Inhibition.
As to `COc1ccccc1N1CCC(CNCc2cccc(OC)c2OC)C1` (stereo not drawn), the cytotoxicity at 70.5 h came to 13.4%.
Then `CCNC(=O)N(C)C1CCCc2nc(C)sc21` (stereo not drawn), with -2.26%; and `O=C(CN1CCNC1=O)N1CCc2nnc(-c3ccccc3)n2CC1`, with -1.95%.
Then `CCn1cc(CNCCNc2ncc(Cl)cc2Cl)cn1`, with 10.4%; and `CCOc1ccccc1NC(=O)NCCc1ccoc1`, with 12.2%.
Then `CCCc1cc(C(=O)N2C[C@@H](C)[C@](O)(C3CCC3)C2)[nH]n1`, with 8.19%.
For the compound `CN(CC(=O)NC1CC1)C(=O)c1csc(Br)c1`, the cytotoxicity at 70.5 h was -8.41%.
Next, `CCCC1c2cccn2CCN1C(=O)Cn1cnc2sc(C)cc2c1=O` (stereo not drawn): -12.3%; `O=C1NCCCC1NC(=O)C1(c2cccc(Cl)c2)CCC1` (stereo not drawn): -0.27%.
Then `CCN(CC1COc2ccccc2O1)C(=O)CCn1cncn1` (stereo not drawn), with -5.89%; and `CC(C)N1CCCC(CNC(=O)Cc2csc(-c3cccnc3)n2)C1` (stereo not drawn), with -0.239%; and `Cc1ncsc1C(=O)N1CCCN(Cc2cscn2)CC1`, with -12.1%.
Next, `O=S(=O)(CC1CCCCO1)Nc1c(F)cccc1-n1cccn1` (stereo not drawn): -3.07%; `CCNC(=O)N1C[C@@H]2OCC(=O)N(C)[C@@H]2C1`: 7.93%.
Regarding `O=C(NC1CC1)N1CC[C@@H](O)[C@@H]1Cc1ccccc1`, the cytotoxicity at 70.5 h was determined as 0.741%.
Next, `Cn1ccnc1CN1CCCN(C(=O)c2ccc3[nH]nnc3c2)CC1`: -4.07%; `CC(=O)c1cccc(NC(=O)NCCOCC2CC2)c1`: -6.67%; `CCCc1noc(CCC(=O)N2CCCC2c2cccs2)n1` (stereo not drawn): -2.53%.
Then `CNc1cc(-c2ccccc2CN)c2cc[nH]c2n1`, with 3.36%.
Next, `Cc1nc(CNC(=O)NC2CCN(c3cccc(Cl)c3)C2)no1` (stereo not drawn): -1.4%; `Cc1nnc2n1CCN(Cc1csc(-c3ccc(F)cc3)n1)C2`: -12.1%.
Regarding `O=C(Nc1cnn(Cc2ccc(Cl)cc2)c1)N[C@@H]1C=C[C@H](CO)C1`, the cytotoxicity at 70.5 h was -7.72%.
Then `Cc1ccc(CN2C[C@H]3C[C@H](C(=O)NCc4cccnc4)[C@@H](C2)O3)cc1`, with 37.6%; and `CN1CCN(C(=O)C2CCN(c3cccnn3)C2)CC1` (stereo not drawn), with -6.3%.
Next, `CCC(CO)N(Cc1ccsc1)Cc1cccc(O)c1` (stereo not drawn): -0.682%; `c1ccc2nc(NCC3(N4CCOCC4)CCSC3)cnc2c1` (stereo not drawn): 28.5%.
With `CSc1cc2c(cc1NC(=O)NCC(=O)N(C)C)OCCO2`, the cytotoxicity at 70.5 h stood at 0.952%.
Next, `O=C(O)c1cc(Br)cnc1OCC1CC1`: 2.88%.
Next, `CCOCCN1CCN(CC(=O)N2CCC2)CC1CC` (stereo not drawn): -7.02%; `Cc1n[nH]c(C)c1C1COCCN1c1ncnc2sccc12` (stereo not drawn): -13%.
Then `COc1cc(C(=O)NCC2CC2)nc2c(C)cc(F)cc12`, with -4.75%; and `Cc1ccc(=O)n(CC2(O)CCN(Cc3cnc(C)nc3)CC2)n1`, with -10.4%.
Take `Cc1ccc(N2CCCC3(COCCN(c4ccccn4)C3)C2)nn1` (stereo not drawn): the cytotoxicity at 70.5 h is -8.01%.
For `O=C(c1cnn(-c2ccccc2)n1)N1CCCC(n2cccn2)C1` (stereo not drawn), the cytotoxicity at 70.5 h is -10.8%.
As to `COc1ccccc1N1CCCC(Nc2nccnc2C#N)C1` (stereo not drawn), the cytotoxicity at 70.5 h was -6.29%.
Next, `CC(=O)Nc1cc(-c2cccc(F)c2F)n[nH]1`: -5.76%; `CC(Cn1cccn1)NCc1csc(-c2ccc(F)cc2)n1` (stereo not drawn): 5.69%; `N#CC1(C(=O)N2CCCN(c3nccs3)CC2)CCCC1`: -11%.
For the compound `Cc1ccnc(C(=O)N2C[C@@H]3CN(S(C)(=O)=O)CCO[C@@H]3C2)c1`, the cytotoxicity at 70.5 h worked out at 18%.
Then `CN(Cc1coc(-c2ccccc2)n1)C1CCCN(c2cccnn2)C1` (stereo not drawn), with -7.45%; and `Cc1ccc(Oc2ncccc2CNC2CCOCC2)cn1`, with -7.51%; and `CN(Cc1ccncc1)C(=O)[C@H]1CSCN1C(=O)OC(C)(C)C`, with -2.79%.
Then `CC(C)N1[C@H](CN2CCCC2)C[C@@H]2CN(Cc3ccoc3)CC[C@@H]21`, with -10%; and `c1cc(CNCC2CNc3ccnn3C2)cc(OC2CCCCC2)n1` (stereo not drawn), with -7.62%.
Then `Cc1cc(CNC(=O)N2CCCN(Cc3ccccc3)CC2)no1`, with -9.16%; and `O=C(Nc1ccccc1C(=O)N1CCCC1)NC1CCOCC1`, with -7.16%; and `CCCc1nc(NCCCn2ccnc2)c2c(n1)c(C)nn2CC`, with -11.1%.
Regarding `CSCCC(=O)N1CCC(c2nccn2CCN(C)C)CC1`, the cytotoxicity at 70.5 h was -2.46%.
Then `Cn1c(C2CC2)nc2c1CCN(Cc1nc(-c3ccsc3)no1)C2`, with -10.5%; and `Cn1cc(C(=O)N2CCCC(c3ncc[nH]3)C2)cn1` (stereo not drawn), with -7.17%.
Then `O=C(O)[C@]12CCCN(C3CCOC3)C[C@H]1CN(c1ncccn1)C2` (stereo partly drawn), with -2.93%; and `O=C(c1ccco1)N1CCC(n2cc(-c3ccsc3)nn2)CC1`, with -5.81%.
Next, `CN(C)CCO[C@@H]1CC[C@H]2[C@H]1OCCN2C(=O)c1ccncc1`: -3.32%.
Regarding `Cc1ncc(CC(=O)N2CCCCC2CCN2CCCC2)c(=O)[nH]1` (stereo not drawn), the cytotoxicity at 70.5 h was -3.87%.
Then `Cc1cc(-c2nn3c(C4CC4)nnc3s2)on1`, with 12.2%; and `c1cncc(C2COC3(CCN(CC4CCOCC4)CC3)C2)c1` (stereo not drawn), with 1.21%.
Next, `CC1CCN(C[C@H]2CN3CC[C@H]2C[C@@H]3CNC(=O)c2ccco2)CC1`: 19.1%.
Next, `CC(O)CN1CCN(C(=O)c2ccn(-c3cccc(Cl)c3)n2)CC1` (stereo not drawn): 13.7%; `Cc1nc(CN2CCCC2c2noc(C3CC3)n2)oc1C` (stereo not drawn): -9.58%.
As for `O=C(O)[C@@H]1CN(C(=O)c2ccc3nccnc3c2)C[C@H]1c1ccncc1`, the cytotoxicity at 70.5 h is -7.07%.
Next, `CN(Cc1nnc2n1CCC2)S(=O)(=O)c1ccc(Br)cc1Cl`: -4.12%; `O=C(c1ccc[nH]1)N1C[C@H]2CN(Cc3cccc(F)c3)C(=O)[C@H]2C1`: -0.293%.
In the case of `COCCNc1ccccc1CNC(=O)NCc1nc(C)c(C)s1`, the cytotoxicity at 70.5 h was -7.21%.
Then `CN(C)S(=O)(=O)NCc1cccnc1Oc1ccc(F)c(F)c1`, with -4.24%.
Then `NC(=O)c1ccc(CN2C(=O)C3(CCNCC3)Nc3ccccc32)cc1`, with 26.6%; and `COc1ccc(C[C@H]2CN(C(=O)c3ncccn3)CC[C@@H]2OC)cc1`, with -6.01%; and `COc1cc(N2C[C@H](C(=O)NC3CC3)[C@@H]3CCO[C@@H]3C2)ncn1`, with -7.61%.
Next, `Cc1cccc(C(=O)N2CC[C@@H]3CN(c4ncccn4)CCO[C@@H]3C2)c1`: -9.91%.
Regarding `O=C(CCN1CCCC1c1cccc(F)c1)N1CCc2sccc2C1` (stereo not drawn), the cytotoxicity at 70.5 h was found to be 0.336%.
Next, `CCC[C@H]1CN(C(=O)Cn2ccccc2=O)C[C@@H]1NS(C)(=O)=O`: -1.15%; `CCOC(=O)[C@H]1[C@@H](O)C(=O)N(C)C12CCN(C(=O)C(CC)CC)CC2`: -3.26%.
Then `CCC(CO)(CO)NC(=O)C1CCC(=O)N(CCc2ccccc2)C1` (stereo not drawn), with -10.4%.
Take `Cc1nc(C)n(CCC(=O)N2CCc3ncc(Cl)cc3C2)n1`: the cytotoxicity at 70.5 h was 6.03%.
Next, `CN(C)C(=O)c1ccccc1NC(=O)N(C)Cc1ccccc1O`: 4.11%; `CCc1nc(CN2CCCN(C(=O)C3CCC3)CC2)cs1`: 5.44%.
Next, `CC(NC(=O)CCn1cccn1)c1ccc(-n2ccnn2)cc1` (stereo not drawn): 15.4%; `Cc1nc(C2CCCN2C(=O)Cc2ccc3c(c2)OCO3)nc(O)c1C` (stereo not drawn): -5.28%.
Next, `Cn1cc(CN2C[C@@H](N3CCCC3=O)[C@H]3OCCC[C@H]32)cn1`: -3.55%.
`COCCC(=O)N1CCCC1c1cccc(C)c1C` (stereo not drawn): the cytotoxicity at 70.5 h came to 23.9%.
As for `Cc1nc2c(c(NCC3Cc4ccccc4CN3C)n1)CCNCC2` (stereo not drawn), the cytotoxicity at 70.5 h is -8.03%.
Then `CCN(Cc1ccccc1)C(=O)CCN1CC(O)C1`, with -16.3%; and `CC(C(=O)N(C)Cc1ccco1)n1cncn1` (stereo not drawn), with 1.02%; and `N#Cc1cc(F)ccc1Cn1cncn1`, with -9.13%.
Then `CCC[C@H]1CN(c2nccc(OC)n2)C[C@@H]1NS(=O)(=O)N(C)C`, with 0.969%; and `CC(C)CCS(=O)(=O)CC(=O)N1CCCC1c1cnn(C)c1` (stereo not drawn), with -5.18%.
Next, `Cc1nn(C)c(C)c1C1COCCN1C(=O)CCc1ccccc1` (stereo not drawn): -1.71%.
On to `CCOCC(=O)N1CCC(c2cc3ncccc3c(O)n2)CC1`, for which the cytotoxicity at 70.5 h is -6.58%.
Turning to `CN(C)CCNC(=O)CCC1CCN(C(=O)c2ccc(O)cn2)CC1`, the cytotoxicity at 70.5 h is -6.92%.
Next, `Cc1cnn(CCC(=O)N2CCCC(c3cc(C(N)=O)[nH]n3)C2)c1` (stereo not drawn): -10.9%; `FC(F)(F)CCN(Cc1ccon1)C1CCCC1`: -7.02%; `Cc1cnn(CC2CN(CC(=O)Nc3nnc(C)s3)CCO2)c1` (stereo not drawn): -9.05%.
Next, `Cc1ccc(CNC(=O)NCc2cccnc2N(C)C)s1`: -14.6%.
Then `O=C(COCc1ccccc1)N1CCCC1c1noc(C2CC2)n1` (stereo not drawn), with -7.31%; and `Cc1cnn(CCCNC(=O)NC(C)C(=O)Nc2ccccc2)c1` (stereo not drawn), with 6.05%.
As for `COCCN1CCC(CNC(=O)Nc2ccc(F)c(Cl)c2)C1` (stereo not drawn), the cytotoxicity at 70.5 h was 24.8%.
Then `CC(C)NC(=O)N1CCC(c2nnc3ccc(C(=O)N(C)C)cn23)C1` (stereo not drawn), with -1.02%; and `COc1cccc(C(=O)N2C[C@@H](CN(C)CCO)[C@@H](CO)C2)c1C`, with 23.8%.
Then `O=c1c(NCc2ccccn2)c(NCC(O)CN2CCOCC2)c1=O` (stereo not drawn), with -12.9%.
